The record followed here is patent publication US7473790B2 (Pfizer Inc., priority 2003, dated 2009).

This assay addresses T1, HCV polymerase (Hepatitis C virus genotype 1b, UniProt P26663).
T1 construct: 2.5 pmoles (0.15 μg) HCV polymerase protein in a final volume of 75 μL
Put plainly: HCV polymerase primer/template-directed transcription assay (32P-GTP incorporation, filter binding). It counts as biochemical. To be noted: recombinant HCV polymerase; 30 minutes at 30° C.; concentration giving 50% inhibition of polymerase-directed transcription; read-out: IC50. The gist of the method: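 Recombinant genotype 1b polymerase (30 nM) extended biotin-dG12 primer on poly(rC)300 template with 1 μM GTP plus α-32P-GTP, pH 7.2, 10 mM MgCl2, 30 min at 30° C, 1% DMSO final. Products captured on DE filters and counted. IC50 fitted from triplicate cpm, with a tight-binding correction applied below 200 nM.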

T1 sequence (P26663 2420-3010): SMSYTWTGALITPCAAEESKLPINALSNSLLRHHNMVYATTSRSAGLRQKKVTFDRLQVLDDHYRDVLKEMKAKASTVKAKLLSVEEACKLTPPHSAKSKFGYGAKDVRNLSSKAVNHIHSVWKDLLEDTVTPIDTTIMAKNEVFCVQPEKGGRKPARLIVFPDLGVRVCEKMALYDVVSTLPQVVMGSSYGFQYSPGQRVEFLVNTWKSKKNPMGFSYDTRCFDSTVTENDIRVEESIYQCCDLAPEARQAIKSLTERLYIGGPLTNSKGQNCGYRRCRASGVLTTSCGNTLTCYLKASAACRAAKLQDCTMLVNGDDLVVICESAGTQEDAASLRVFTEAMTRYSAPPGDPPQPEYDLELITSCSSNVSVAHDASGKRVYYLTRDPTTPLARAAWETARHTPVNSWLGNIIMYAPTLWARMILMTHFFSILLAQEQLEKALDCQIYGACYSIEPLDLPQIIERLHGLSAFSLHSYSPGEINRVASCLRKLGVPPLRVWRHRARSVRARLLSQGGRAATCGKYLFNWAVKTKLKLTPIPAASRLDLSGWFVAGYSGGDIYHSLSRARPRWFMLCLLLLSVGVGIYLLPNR

A word on the IC50: it is the midpoint of a concentration-inhibition curve. As for `CCc1cc(CCC2(C3CCCC3)CC(O)=C(Cc3nc4ncc(C)cn4n3)C(=O)O2)cc(F)c1O` (centres unmarked) [A(125), 6-Cyclopentyl-6-[2-(3-ethyl-5-fluoro-4-hydroxy-phenyl)-ethyl]-4-hydroxy-3-(6-methyl-[1,2,4]triazolo[1,5-a]pyrimidin-2-ylmethyl)-5,6-dihydro-pyran-2-one], the IC50 is 11 nM.

Take `COc1ccc(CCC2(C3CCCC3)CC(O)=C(Cc3nn(C)cc3Cl)C(=O)O2)cc1Cl` (centres unmarked) [B(29), 6-[2-(3-Chloro-4-methoxy-phenyl)-ethyl]-3-(4-chloro-1-methyl-1H-pyrazol-3-ylmethyl)-6-cyclopentyl-4-hydroxy-5,6-dihydro-pyran-2-one]: the IC50 was found to be 220 nM.

With `COc1ccc(CCC2(C3CCCC3)CC(O)=C(Sc3nc4ncccc4[nH]3)C(=O)O2)cc1Cl` (centres unmarked) [C(43), 6-[2-(3-chloro-4-methoxyphenyl)ethyl]-6-cyclopentyl-4-hydroxy-3-(1H-imidazo[4,5-b]pyridin-2-ylthio)-5,6-dihydro-2H-pyran-2-one], the IC50 was determined as 35 nM.

Take `CC(C)(C)c1cc(CCC2(C3CCCC3)CC(=O)CC(=O)O2)ccc1O` (centres unmarked) [A(02), 6-[2-(3-tert-Butyl-4-hydroxy-phenyl)-ethyl]-6-cyclopentyl-dihydro-pyran-2,4-dione]: the IC50 was determined as 2400 nM.

Consider `Cc1cc(C)n2nc(CC3=C(O)CC(CCc4ccc(OCC5CC5)c(F)c4)(C4CCCC4)OC3=O)nc2n1` (centres unmarked) [B(33), 6-Cyclopentyl-6-[2-(4-cyclopropylmethoxy-3-fluoro-phenyl)-ethyl]-3-(5,7-dimethyl-[1,2,4]triazolo[1,5-a]pyrimidin-2-ylmethyl)-4-hydroxy-5,6-dihydro-pyran-2-one], for which the IC50 came out at 136 nM.

Consider `COc1ccc(CCC2(C3CCCC3)CC(O)=C(Sc3nc4ccccc4n3C)C(=O)O2)cc1Cl` (centres unmarked) [C(41), 6-[2-(3-chloro-4-methoxyphenyl)ethyl]-6-cyclopentyl-4-hydroxy-3-[(1-methyl-1H-benzimidazol-2-yl)thio]-5,6-dihydro-2H-pyran-2-one], for which the IC50 stood at 170 nM.

As to `COC(=O)c1nnc(SC2=C(O)CC(CCc3cc(Cl)c(OC)cc3OC)(C3CCCC3)OC2=O)n1C` (centres unmarked) [C(89), methyl 5-({6-[2-(5-chloro-2,4-dimethoxyphenyl)ethyl]-6-cyclopentyl-4-hydroxy-2-oxo-5,6-dihydro-2H-pyran-3-yl}thio)-4-methyl-4H-1,2,4-triazole-3-carboxylate], the IC50 was determined as 20 nM.

`O=C1CC(=O)OC(CCC#Cc2ccccc2OC(F)(F)F)(C2CCCC2)C1` (centres unmarked) [F(4), 6-Cyclopentyl-6-[4-(2-trifluoromethoxy-phenyl)-but-3-ynyl]-dihydro-pyran-2,4-dione]: the IC50 stood at 5800 nM.

With `COc1ccc(CCC2(C3CCCC3)CC(=O)C(Cc3nc4ccccc4n3C)C(=O)O2)cc1Cl` (centres unmarked) [B(84), 6-[2-(3-chloro-4-methoxyphenyl)ethyl]-6-cyclopentyl-3-[(1-methyl-1H-benzimidazol-2-yl)methyl]dihydro-2H-pyran-2,4(3H)-dione], the IC50 turned out to be 110 nM.

As for `COc1ccc(CCC2(C3CCCC3)CC(O)=C(Sc3cccc(Cl)c3Cl)C(=O)O2)cc1Cl` (centres unmarked) [C(108), 6-[2-(3-chloro-4-methoxyphenyl)ethyl]-6-cyclopentyl-3-[(2,3-dichlorophenyl)thio]-4-hydroxy-5,6-dihydro-2H-pyran-2-one], the IC50 is 210 nM.

Take `CC(C)(C#N)c1ccc(CCC2(C3CCCC3)CC(O)=C(Cc3nc4ncc(Cl)cn4n3)C(=O)O2)cc1Cl` (single isomer, unassigned) [A(205), 2-(2-Chloro-4-{2-[5-(6-chloro-[1,2,4]triazolo[1,5-a]pyrimidin-2-ylmethyl)-2-cyclopentyl-4-hydroxy-6-oxo-3,6-dihydro-2H-pyran-2-yl]-ethyl}-phenyl)-2-methyl-propionitrile]: the IC50 was found to be 1 nM.

On to `CCC1(c2ccc(CCC3(C4CCCC4)CC(=O)CC(=O)O3)cc2Cl)CC(=O)CC(=O)O1` (centres unmarked) [A(30), 6-[2-(3-Chloro-4-(6-Ethyl-dihydro-pyran-2,4-dione)-phenyl)-ethyl]-6-cyclopentyl-dihydro-pyran-2,4-dione], for which the IC50 is 840 nM.

For `COc1ccc(CC2=C(O)CC(CCc3ccc(OC)c(Cl)c3)(C3CCCC3)OC2=O)cc1` (centres unmarked) [B(17), 6-[2-(3-Chloro-4-methoxy-phenyl)-ethyl]-6-cyclopentyl-4-hydroxy-3-(4-methoxy-benzyl)-5,6-dihydro-pyran-2-one], the concentration for half-maximal inhibition (IC50) is 1100 nM.

Regarding `CCC(CC)Oc1ccc(CCC2(C3CCCC3)CC(=O)CC(=O)O2)cc1Cl` (centres unmarked) [A(83), 6-{2-[3-Chloro-4-(1-ethyl-propoxy)-phenyl]-ethyl}-6-cyclopentyl-dihydro-pyran-2,4-dione], the IC50 worked out at 5400 nM.

Turning to `Cc1nc(-c2ccc(CCC3(C4CCCC4)CC(=O)CC(=O)O3)cc2F)no1` (centres unmarked) [A(15), 6-Cyclopentyl-6-{2-[3-fluoro-4-(5-methyl-[1,2,4]oxadiazol-3-yl)-phenyl]-ethyl}-dihydro-pyran-2,4-dione], the half-maximal inhibitory concentration (IC50) amounted to 4400 nM.

On to `CCc1cc(CC)n2nc(CC3C(=O)CC(CCc4ccc(O)c(CC)c4)(C4CCCC4)OC3=O)nc2n1` (centres unmarked) [A(138), 6-cyclopentyl-3-[(5,7-diethyl[1,2,4]triazolo[1,5-a]pyrimidin-2-yl)methyl]-6-[2-(3-ethyl-4-hydroxyphenyl)ethyl]-4-hydroxy-5,6-dihydro-2H-pyran-2-one], for which the IC50 is 8 nM.

Consider `CCc1cc(CCC2(C3CCCC3)CC(O)=C(Cc3nc4ncc(Cl)cn4n3)C(=O)O2)c(OC)cc1O` (racemic) [A(210), 3-[(6-chloro[1,2,4]triazolo[1,5-a]pyrimidin-2-yl)methyl]-6-cyclopentyl-6-[2-(5-ethyl-4-hydroxy-2-methoxyphenyl)ethyl]-4-hydroxy-5,6-dihydro-2H-pyran-2-one], for which the IC50 was found to be 2 nM.

With `CCNC(=O)C(C)(C)c1ccc(CCC2(C3CCCC3)CC(O)=C(Cc3nc4ncc(C)cn4n3)C(=O)O2)cc1F` (centres unmarked) [A(268), 2-(4-{2-[2-Cyclopentyl-4-hydroxy-5-(6-methyl-[1,2,4]triazolo[1,5-a]pyrimidin-2-ylmethyl)-6-oxo-3,6-dihydro-2H-pyran-2-yl]-ethyl}-2-fluoro-phenyl)-N-ethyl-isobutyramide], the IC50 worked out at 680 nM.

Consider `N#CCC(=O)c1ccc(C#CC2(C3CCCC3)CC(=O)CC(=O)O2)s1` (centres unmarked) [E(2), 3-[5-(2-Cyclopentyl-4,6-dioxo-tetrahydro-pyran-2-ylethynyl)-thiophen-2-yl]-3-oxo-propionitrile], for which the IC50 was determined as 8200 nM.

Take `COCc1cc(CCC2(C3CCCC3)CC(O)=C(Cc3nc4nc(C)cc(C)n4n3)C(=O)O2)ccc1O` (centres unmarked) [A(192), 6-Cyclopentyl-3-(5,7-dimethyl-[1,2,4]triazolo[1,5-a]pyrimidin-2-ylmethyl)-4-hydroxy-6-[2-(4-hydroxy-3-methoxymethyl-phenyl)-ethyl]-5,6-dihydro-pyran-2-one]: the IC50 came out at 28 nM.

Regarding `Cc1cc(C)n2nc(SC3=C(O)CC(CCNC(=O)CCc4ccco4)(C4CCCC4)OC3=O)nc2n1` (centres unmarked) [H(4), N-{2-[2-Cyclopentyl-5-(5,7-dimethyl-[1,2,4]triazolo[1,5-a]pyrimidin-2-ylsulfanyl)-4-hydroxy-6-oxo-3,6-dihydro-2H-pyran-2-yl]-ethyl}-3-furan-2-yl-propionamide], the IC50 came to 60000 nM.

On to `COc1ccc(CCC2(C3CCCC3)CC(O)=C(Cc3nc(C)cc(=O)[nH]3)C(=O)O2)cc1Cl` (centres unmarked) [B(54), 2-({6-[-(3-chloro-4-methoxyphenyl)ethyl]-6-cyclopentyl-4-hydroxy-2-oxo-5,6-dihydro-2H-pyran-3-yl}methyl)-6-methylpyrimidin-4(3H)-one], for which the IC50 came to 300 nM.

As for `COc1ccc(CCC2(C3CCCC3)CC(O)=C(Cc3ccc(-n4cncn4)cc3)C(=O)O2)cc1Cl` (centres unmarked) [B(25), 6-[2-(3-Chloro-4-methoxy-phenyl)-ethyl]-6-cyclopentyl-4-hydroxy-3-(4-[1,2,4]triazol-1-yl-benzyl)-5,6-dihydro-pyran-2-one], the IC50 amounted to 240 nM.

For the compound `COc1ccc(CCC2(C3CCCC3)CC(O)=C(Sc3ncc[nH]3)C(=O)O2)cc1Cl` (centres unmarked) [C(103), 6-[2-(3-chloro-4-methoxyphenyl)ethyl]-6-cyclopentyl-4-hydroxy-3-(1H-imidazol-2-ylthio)-5,6-dihydro-2H-pyran-2-one], the half-inhibitory concentration (IC50) is 240 nM.

Consider `COC(=O)Nc1cc(CC2=C(O)CC(CCc3ccc(OC)cc3)(C3CCCC3)OC2=O)on1` (centres unmarked) [B(60), Methyl 5-({6-cyclopentyl-4-hydroxy-6-[2-(4-methoxyphenyl)ethyl]-2-oxo-5,6-dihydro-2H-pyran-3-yl}methyl)isoxazol-3-ylcarbamate], for which the half-inhibitory concentration (IC50) came to 540 nM.

Regarding `CCc1nc(C)c(CC2=C(O)CC(CCc3ccc(C(C)(C)C#N)c(F)c3)(C3CCCC3)OC2=O)[nH]1` (centres unmarked) [A(97), 2-[4-(2-{2-cyclopentyl-5-[(2-ethyl-4-methyl-1H-imidazol-5-yl)methyl]-4-hydroxy-6-oxo-3,6-dihydro-2H-pyran-2-yl}ethyl)-2-fluorophenyl]-2-methylpropanenitrile], the IC50 turned out to be 290 nM.

With `CCc1nc(CC2=C(O)CC(CCc3ccc(O)c(CC)c3)(C3CCCC3)OC2=O)c(C)[nH]1` (centres unmarked) [B(111), 6-Cyclopentyl-6-[2-(3-ethyl-4-hydroxy-phenyl)-ethyl]-3-(2-ethyl-5-methyl-1H-imidazol-4-ylmethyl)-4-hydroxy-5,6-dihydro-pyran-2-one], the IC50 was found to be 321 nM.

Take `CCC(C#N)(CC)c1ccc(CCC2(C3CCCC3)CC(O)=C(Cc3nc4ncc(Cl)cn4n3)C(=O)O2)cc1F` (single isomer, unassigned; (-)) [A(267), (−)-2-(4-{2-[5-(6-Chloro-[1,2,4]triazolo[1,5-a]pyrimidin-2-ylmethyl)-2-cyclopentyl-4-hydroxy-6-oxo-3,6-dihydro-2H-pyran-2-yl]-ethyl}-2-fluoro-phenyl)-2-ethyl-butyronitrile]: the IC50 was 4 nM.

Regarding `O=C1CC(=O)OC(CCc2ccc(O)c(C3CCCC3)c2)(C2CCCC2)C1` (centres unmarked) [A(89), 6-cyclopentyl-6-[2-(3-cyclopentyl-4-hydroxyphenyl)ethyl]dihydro-2H-pyran-2,4(3H)-dione], the IC50 stood at 2800 nM.
